Source: patent publication EP0646375A1, “Method of regulating blood amino acid levels” (CLINTEC NUTRITION COMPANY, priority 1993, dated 1995)
Residues, ends and D or L forms follow the SMILES beside them.

Assays:
[1] = in vivo; settings: male, Sprague Dawley, rat, iv
[2] = rat, in vivo

Compound	clearance [1]	mean Vβ of the dipeptide [2]	mean clearance of glutamine, times greater than glutamine from GlnGly or AlaGln [2]	mean t½ of glutamine, times shorter than glutamine from GlnGly or AlaGln [2]	CLEARANCE OF: Dipeptide ([2]; iv)
C[C@H](N)C(=O)N[C@@H](Cc1ccc(O)cc1)C(=O)O [ALA-TYR] (H-Ala-Tyr-OH)	9.3 L/h/kg	–	–	–	–
NCC(=O)N[C@@H](Cc1ccc(O)cc1)C(=O)O [GLY-TYR] (H-Gly-Tyr-OH)	6.06 L/h/kg	0.06 to 0.07 L/kg	–	–	–
C[C@H](NC(=O)[C@@H](N)Cc1ccc(O)cc1)C(=O)O [TYR-ALA]	11.2 L/h/kg	0.06 to 0.07 L/kg	–	–	–

Further lines, results first:

clearance [1]	mean Vβ of the dipeptide [2]	mean clearance of glutamine, times greater than glutamine from GlnGly or AlaGln [2]	mean t½ of glutamine, times shorter than glutamine from GlnGly or AlaGln [2]	CLEARANCE OF: Dipeptide ([2]; iv)	Compound
7.32 L/h/kg	–	–	–	–	C[C@H](N)C(=O)N[C@@H](CCC(N)=O)C(=O)O [ALA-GLN] (H-Ala-Gln-OH)
–	0.06 to 0.07 L/kg	4 times	3 times	16.7 L/h/kg	C[C@H](NC(=O)[C@@H](N)CCC(N)=O)C(=O)O [GLN-ALA] (H-Gln-Ala-OH)
9.06 L/h/kg	–	–	–	–	NC(=O)CC[C@H](N)C(=O)NCC(=O)O [GLN-GLY] (H-Gln-Gly-OH)
2.58 L/h/kg	0.06 to 0.07 L/kg	–	–	–	NCC(=O)N[C@@H](CCC(N)=O)C(=O)O [GLY-GLN] (H-Gly-Gln-OH)
